≈ marks a conversion by molar mass, not a printed value. Like-named read-outs stand apart in the source and are kept apart here. *1 amine or outer side, *2 acyl side, *3 side chain or, on linkers, in order; H or OH if unused. Where a SMILES comes first, the peptide text is derived from it. Bridges are numbered along the chain shown (N, C = ends). Roman numbers before positions name the chains, in order. [ ]: non-standard residue; d: D form. Actinocin(9to1) = Cc1c2oc3c(C)ccc(C(=O)[*:1])c3nc-2c(C(=O)[*:2])c(N)c1=O; NMeV = CN[C@H](C(=O)O)C(C)C; Sar = CNCC(=O)O
Columns and labels:
Solubility in water = type: physicochemical; details: for solubility in water: at 20° C.
Method: Synthesis of "Reverse" III AMD Analogue (RAD III, 3c). The synthesis of RAD III (3c) is shown schematically in Scheme I. Compound 4 was reacted with the benzyl ester of oxalacetic acid at 80° C. according to the procedure reported. The resulting product 5 with the CH2 COOCH2 C6 H5 substituent at the C-2 of the oxazole ring was debenzylated to 6, and compound 6 was coupled with excess 1,4-diaminobutane by DCC in pyridine. […] Like AMD and its other "reverse" analogues, RAD III (3c) is 16-fold more soluble in water at 4° C. than at 20° C.

rat liver microsomes = assay: Stimulation of adrenochrome formation (superoxide) by rat hepatic microsomal incubations; type: biochemical; details: for adrenochrome formation in presence of SOD: with SOD (superoxide dismutase) 5 ug/mL; for percentage stimulation of adrenochrome formation / adrenochrome formation: without SOD; for percentage stimulation of adrenochrome formation: (drug-stimulated rate - basal rate)/basal rate × 100; for adrenochrome formation: average ± standard error of triplicate
Description: It has been reported that the quinone imino chromophore of actinomycin can be subjected to enzyme-catalyzed single-electron reduction to give free-radical species that generate superoxides by reacting with molecular oxygen. The process needs a reductive cofactor NADPH, which is oxidized to NADP^+ during the process, giving a change in the absorbance at 340 nm that can be measured spectrophotometerically. Alternatively, the superoxides generated during the process may be allowed to react with epinephrine to produce adrenochrome, a chromophore with strong absorbance at 480 nm that can be measured spectrophotmetrically.
The superoxide formations were studied via NADPH oxidation catalyzed by AMD analogues in the presence of rat liver microsomes. […] The process of adrenochrome formation is inhibited by superoxide dismutase, confirming that superoxide is indeed generated in these systems.
^a The percentage stimulation = (drugstimulated rate basal rate)/basa
rate × 100 and is shown in parentheses. NADPH oxidation was measure
at 340 nm and adrenochrome formation was measured at 489 nm; the values
are average ± standard errors of triplicate analyses. ^b SOD,

B16 melanoma = assay: In vivo antitumor activity against B16 melanoma; parameters: species or system BDF1 mice; details: for % ILS / survivors on day 65/total injected / MST (range), median survival time: at optimal dose, ip days 1, 5, 9; for MST (range), median survival time: range of days of death; for optimal dose: ip, days 1, 5, 9
Method: ^a 0.2 mL of 1:5 (weight/volume) brei of B16 melanoma implanted
ip on day 0 in groups of nine BDF1 mice. Drugs administered ip^b
MST (range), median survival time in days (range of days for death of
individual animal). ^c % ILS (surv), percent increase in life span
(survivors on day 65/total injected).

calf thymus DNA [1] = details: value given with references 2,7; cited from earlier work
[2] = system: P388/S (adriamycin sensitive) leukemia; assay: Antitumor activity in vivo, P388/S leukemia; parameters: species or system mice; details: for tumor free survivors/total on day 60: P388/S, at optimal dose, ip days 1, 5, 9; for effectiveness relative to AMD with respect to %ILS and long-time survivors: P388 lymphocytic leukemia in mice
Method: The analogues were tested for their antitumor activities in P388 lymphocytic leukemia in male BDF1 mice.
^a Male CDF1 mic inoculated ip: 10^6 cells inoculum, day 0.
Drugs administered in 10% dimethyl sulfoxidesaline on days 1, 5, and 9. %
ILS = percent increase in life span. Fractions in parentheses = tumor fre
survivors/total on day 60^b. P388/S (adriamycin sensitive) and
P388/ADR (adriamycin resistant) tumors were evaluated in the same
experiment with agent listed.

[3] = system: human colon carcinoma HT-29 cell line; assay: Cell viability by soft agar cloning; type: cell-based; details: 2 h treatment at 37° C., from plot of concentration vs colony formation
Method: Furthermore, the activity of the analogues against a human colon carcinoma HT-29 cell line in culture was evaluated. After the cells were treated for 2 h with 0.01-10.0 uM of the drugs at 37° C., the cells were washed with ice-cold PBS (phosphate buffered saline), and the cell viability was assessed by soft agar cloning. Cells viability was expressed as the percentage of colonies from the drug-treated cells relative to control cells after correcting for the cloning efficiency, which ranged from 60% to 80%.

calf thymus DNA [4] = assay: Equilibrium binding constants from Scatchard plots of binding isotherms; details: 0.01M phosphate buffer, pH 7.0 at 20° C.
Method: The equilibrium binding constants of RAD III (3c), determined from the Scatchard plots of binding isotherms with use of calf thymus DNA, are Kapp, 2.9×10^6 M^-1, and Bapp, 0.040 in 0.01M phosphate buffer, pH 7.0 at 20° C.

mouse melanoma (B16) = assay: In vitro inhibition of tumor cell growth; type: cell-based; details: B16 cell line
Description: The comparative cell growth inhibitory activity of RAD's and SAD are reported (data in Table IV, supplementary material). The cell lines used are human lymphoblastic leukemia (CCRF-CEM), murine lymphocytic leukemia (P388) and lymphoid leukemia (L1210), and mouse melanoma (B16). […] In general, the cytotoxic potencies of the analogues are in the order: […]

[5] = system: CX-1 human colon adenocarcinoma; assay: Chemotherapy of human colon CX-1 tumor heterotransplanted in nude mice; type: in vivo, human tumor in athymic mice
low molecular weight DNA = assay: Viscometry experiment (intercalation into DNA); type: binding; details: DNA 0.5×10^5 to 1.0×10^5 daltons
colon tumor 26 = assay: In vivo activity against colon tumor 26; parameters: species or system CDF1 mice; details: three doses over 9-day period

SMILES | solubility in water (Solubility in water) | adrenochrome formation in presence of SOD (rat liver microsomes) | percentage stimulation of adrenochrome formation (rat liver microsomes) | adrenochrome formation (rat liver microsomes) | % ILS (B16 melanoma) | survivors on day 65/total injected (B16 melanoma) | MST (range), median survival time (B16 melanoma) | optimal dose (B16 melanoma) | tumor free survivors/total on day 60 [2] | LD90, drug concentration producing 90% reduction in cell viability [3] | effectiveness relative to AMD with respect to %ILS and long-time survivors [2] | cell growth inhibitory potency relative to AMD (mouse melanoma (B16)) | activity against colon tumor 26 (colon tumor 26) | other results
Cc1c2oc3c(C)ccc(C(=O)N[C@@H]4C(=O)N[C@H](C(C)C)C(=O)N5CCC[C@H]5C(=O)N(C)CC(=O)N(C)[C@@H](C(C)C)C(=O)O[C@@H]4C)c3nc-2c(C(=O)N[C@@H]2C(=O)N[C@H](C(C)C)C(=O)N3CCC[C@H]3C(=O)N(C)CC(=O)N(C)[C@@H](C(C)C)C(=O)O[C@@H]2C)c(N)c1=O [AMD (1), Actinomycin D] (I: T[dV]P[Sar][NMeV] / II: T[dV]P[Sar][NMeV]; ester I:1-I:C, II:1-II:C; linker I:N-II:N via Actinocin(9to1)) | 1.0 mg/mL (≈ 797 µM) | inhibited | 8.5% | 2.29 ± 0.33 nmol/min per mg of protein | 48% | 2/9 | 43(36-54) days | 250 μg/kg per inj | 1/8 | – | – | – | – | Bapp (calf thymus DNA [1]): 0.108; Kapp (equilibrium binding constant) (calf thymus DNA [1]): 2.3e+07 M⁻¹
Cc1c2oc3c(C)c4oc(-c5ccccc5)nc4c(C(=O)N[C@@H]4C(=O)N[C@H](C(C)C)C(=O)N5CCC[C@H]5C(=O)N(C)CC(=O)N(C)[C@@H](C(C)C)C(=O)O[C@@H]4C)c3nc-2c(C(=O)N[C@@H]2C(=O)N[C@H](C(C)C)C(=O)N3CCC[C@H]3C(=O)N(C)CC(=O)N(C)[C@@H](C(C)C)C(=O)O[C@@H]2C)c(N)c1=O [RAD II (3b)] | – | inhibited | 800% | 18.8 ± 1.9 nmol/min per mg of protein | 103% | 5/9 | 59(53-59) days | 300 μg/kg per inj | 4/8 | 0.2 µM | two-to threefold | – | – | –
Cc1c2oc3c(C)c4oc(CC(=O)NCCCCN)nc4c(C(=O)N[C@@H]4C(=O)N[C@H](C(C)C)C(=O)N5CCC[C@H]5C(=O)N(C)CC(=O)N(C)[C@@H](C(C)C)C(=O)O[C@@H]4C)c3nc-2c(C(=O)N[C@@H]2C(=O)N[C@H](C(C)C)C(=O)N3CCC[C@H]3C(=O)N(C)CC(=O)N(C)[C@@H](C(C)C)C(=O)O[C@@H]2C)c(N)c1=O [RAD III (3c)] | 2.1 mg/mL (≈ 1470 µM) | inhibited | 870% | 22.1 ± 2.2 nmol/min per mg of protein | 114% | 6/9 | 62(53-61) days | 300 μg/kg per inj | 6/8 | 5.0 µM | two-to threefold | two to fourfold | significant activity | Bapp (calf thymus DNA [4]): 0.040; Kapp (equilibrium binding constant) (calf thymus DNA [4]): 2.9e+06 M⁻¹; fold more soluble in water at 4° C. than at 20° C. (Solubility in water; 4° C. vs 20° C.): 16 fold; % T/C, optimal ([5]; dose 75 μg/kg iv once a week for three weeks, TST 18, observed day 27): 13%; change in the intrinsic viscosity with increasing [ligand]/[DNA base pair] (low molecular weight DNA): failed to demonstrate any measurable change in the intrinsic viscosity; P388/S optimal dose ([2]; ip on days 1, 5, and 9): 1.0 mg/kg
Cc1c2oc3c(C)c(O)c(N)c(C(=O)N[C@@H]4C(=O)N[C@H](C(C)C)C(=O)N5CCC[C@H]5C(=O)N(C)CC(=O)N(C)[C@@H](C(C)C)C(=O)O[C@@H]4C)c3nc-2c(C(=O)N[C@@H]2C(=O)N[C@H](C(C)C)C(=O)N3CCC[C@H]3C(=O)N(C)CC(=O)N(C)[C@@H](C(C)C)C(=O)O[C@@H]2C)c(N)c1=O [SAD (2)] | – | inhibited | 815% | 19.3 ± 1.04 nmol/min per mg of protein | 96% | 4/9 | 57(33-61) days | 300 μg/kg per inj | 4/8 | 0.1 µM | two-to threefold | two to fourfold | significant activity | % T/C, optimal ([5]; dose 40 μg/kg iv once a week for three weeks, TST 15, observed day 22): 18%; % T/C, optimal ([5]; dose 55 μg/kg iv once a week for three weeks, TST 15, observed day 22): 19%; % T/C, optimal ([5]; dose 70 μg/kg iv once a week for three weeks, TST 15, observed day 32): 5%; increase in %ILS over controls (colon tumor 26): 50-150%; increase of survival rate at 60 days (colon tumor 26): 10-40%

— patent US4966962A, “Reverse analogue of actinomycin D” (Trustees of Boston University, priority 1988, dated 1990)
